Data reported in US20180289656A1, “COMPOSITIONS AND METHODS TO TREAT URINARY TRACT INFECTIONS” (Hennepin Life Sciences, LLC, priority 2015, published 2018).

Columns and labels:
Format in all cases: cell-based
S. aureus = test: bactericidal activity against 54 strains of S. aureus
Excerpt: 5% w/v GML nonaqueous gel is bactericidal for 54 strains of S. aureus, including highly antibiotic resistant organisms and multiple clonal groups. GML is antimicrobial on contact, killing the organisms in only a few minutes. The estimated chance of S. aureus developing resistance to GML is […]; thus resistance is highly unlikely.

[1] = tested on: S. aureus (MN8, MNWH, MW2); test: bactericidal activity / growth measured as CFU/mL in supernatants of microtiter plate cultures; settings: GML at 500 μg/mL; all three S. aureus strains (MN8, MNWH, MW2); both 24 and 48 hours
Experimental: (§1) To directly assess the effect of GML on the formation of biofilms, 96 well plastic microtiter plates were inoculated with approximately 10^6/mL of one of three strains of S. aureus (MN8, a methicillin sensitive strain; MNWH, a methicillin resistant strain; or MW2, a methicillin resistant strain), or with non-typable Haemophilus influenzae. Wells were cultured stationary at 37° C. for 24 and 48. As a control, in one set of three wells for each microbe, the wells were agitated 3 times by pipetting up and down. The bactericidal activity of GML was determined by measuring CFU/mL in supernatants. After removal of supernatants, wells were washed three times with PBS to remove unbound cells, and were then treated with crystal violet for 30 minutes. Wells were again washed three times with PBS to remove unbound crystal violet. Finally, wells were treated with ethanol to solubilize biofilm associated crystal violet. Absorbance at 595 nm was determined by an ELISA reader to measure biofilm formation.

S. aureus biofilms = test: biofilm formation by crystal violet staining, absorbance at 595 nm; settings: 10 fold lower GML concentrations than necessary to inhibit bacterial growth
Experimental: as §1

Glycerol monolaurate [GML]
time to kill the organisms (antimicrobial on contact) (S. aureus): a few minutes
growth as measured by CFU/mL [1]: completely inhibited
biofilm formation (crystal violet staining of retained biofilm material) (S. aureus biofilms): significantly inhibited
